The IC50 is the concentration that gives 50% inhibition. A lower IC50 goes with greater potency.

The text below walks through data of ChEMBL document CHEMBL2321785, “Synthesis and SAR study of new thiazole derivatives as vascular adhesion protein-1 (VAP-1) inhibitors for the treatment of diabetic macular edema” (Bioorg Med Chem, 2013).

The target of data set [1] is T1, Amine oxidase [copper-containing] 3 (Homo sapiens, UniProt Q16853).
T1 sequence (Q16853 whole entry): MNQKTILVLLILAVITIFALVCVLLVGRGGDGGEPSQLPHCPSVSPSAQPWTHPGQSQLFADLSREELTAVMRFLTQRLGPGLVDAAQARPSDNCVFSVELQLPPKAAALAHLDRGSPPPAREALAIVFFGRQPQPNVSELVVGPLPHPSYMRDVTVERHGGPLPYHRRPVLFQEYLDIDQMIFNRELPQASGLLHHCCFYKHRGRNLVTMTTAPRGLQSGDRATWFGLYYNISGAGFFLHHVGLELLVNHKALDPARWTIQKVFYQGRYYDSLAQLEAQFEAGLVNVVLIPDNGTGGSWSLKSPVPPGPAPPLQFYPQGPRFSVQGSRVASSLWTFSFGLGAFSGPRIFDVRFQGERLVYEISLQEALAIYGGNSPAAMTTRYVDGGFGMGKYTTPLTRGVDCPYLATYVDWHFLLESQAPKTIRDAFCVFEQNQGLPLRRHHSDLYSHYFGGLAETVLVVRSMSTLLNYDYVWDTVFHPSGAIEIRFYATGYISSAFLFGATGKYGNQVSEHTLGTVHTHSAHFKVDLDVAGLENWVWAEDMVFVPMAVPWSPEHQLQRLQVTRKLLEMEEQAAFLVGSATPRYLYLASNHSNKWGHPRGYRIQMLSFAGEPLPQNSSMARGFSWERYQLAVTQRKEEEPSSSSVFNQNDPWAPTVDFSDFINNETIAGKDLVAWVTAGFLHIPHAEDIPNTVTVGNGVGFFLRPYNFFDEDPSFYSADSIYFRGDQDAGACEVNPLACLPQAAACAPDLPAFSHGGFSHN
The data set can be described thus: Inhibition of human VAP1 expressed in CHO cells using [14C]-benzylamine as substrate incubated for 30 mins prior to substrate addition measured after 1 hr by scintillation spectrophotometric analysis. Format: cell-based.

Data set [2] concerns Rattus norvegicus. The experiment in a line: Inhibition of VAP1-mediated ocular permeability in streptozotocin-induced Sprague-Dawley rat diabetic model assessed as fluorescein leakage in vitreous at 1 to 10 mg/kg, sc administered daily for 4 weeks post streptozotocin challenge measured 24 hrs post last dose by fluorescence assay. Format: functional, organism-based.
Data set [3] addresses T2, Amine oxidase [flavin-containing] B (Homo sapiens, UniProt P27338).
T2 sequence (P27338 whole entry): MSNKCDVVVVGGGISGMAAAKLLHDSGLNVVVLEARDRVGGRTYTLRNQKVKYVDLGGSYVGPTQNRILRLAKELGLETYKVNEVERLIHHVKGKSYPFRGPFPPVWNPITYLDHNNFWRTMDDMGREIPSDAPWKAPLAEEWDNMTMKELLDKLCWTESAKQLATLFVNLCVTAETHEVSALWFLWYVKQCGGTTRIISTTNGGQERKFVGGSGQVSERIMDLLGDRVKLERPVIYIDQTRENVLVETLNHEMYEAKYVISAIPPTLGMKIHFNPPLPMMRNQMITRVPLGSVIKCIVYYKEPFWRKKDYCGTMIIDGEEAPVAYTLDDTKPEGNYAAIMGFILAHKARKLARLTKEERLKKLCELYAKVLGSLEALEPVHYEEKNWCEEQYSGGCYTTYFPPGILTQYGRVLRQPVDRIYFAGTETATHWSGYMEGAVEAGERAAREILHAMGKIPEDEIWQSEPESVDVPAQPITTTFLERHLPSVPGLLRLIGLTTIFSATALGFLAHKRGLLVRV
The experiment in a line: Inhibition of human MAOB expressed in CHO cells using benzylamine as substrate after 1 hr by fluorometric assay. Format: cell-based.

For data set [4], the species on record is Homo sapiens. The experiment in a line: Selectivity ratio of IC50 for human MAOB to IC50 for human VAP1.
Data set [5] deals with Rattus norvegicus. The data set can be described thus: Inhibition of VAP1 in streptozotocin-induced Wistar rat diabetic model using [14C]-benzylamine as substrate assessed as [14C]-benzylaldehyde formation in plasma at >/= 0.1 mg/kg, sc after 1 hr by liquid scintillation counting analysis. Format: functional, organism-based. On the set-up: dose 0.1 mg/kg.
The target of data set [6] is T3, Amine oxidase [copper-containing] 3 (Rattus norvegicus, UniProt O08590).
T3 sequence (O08590 whole entry): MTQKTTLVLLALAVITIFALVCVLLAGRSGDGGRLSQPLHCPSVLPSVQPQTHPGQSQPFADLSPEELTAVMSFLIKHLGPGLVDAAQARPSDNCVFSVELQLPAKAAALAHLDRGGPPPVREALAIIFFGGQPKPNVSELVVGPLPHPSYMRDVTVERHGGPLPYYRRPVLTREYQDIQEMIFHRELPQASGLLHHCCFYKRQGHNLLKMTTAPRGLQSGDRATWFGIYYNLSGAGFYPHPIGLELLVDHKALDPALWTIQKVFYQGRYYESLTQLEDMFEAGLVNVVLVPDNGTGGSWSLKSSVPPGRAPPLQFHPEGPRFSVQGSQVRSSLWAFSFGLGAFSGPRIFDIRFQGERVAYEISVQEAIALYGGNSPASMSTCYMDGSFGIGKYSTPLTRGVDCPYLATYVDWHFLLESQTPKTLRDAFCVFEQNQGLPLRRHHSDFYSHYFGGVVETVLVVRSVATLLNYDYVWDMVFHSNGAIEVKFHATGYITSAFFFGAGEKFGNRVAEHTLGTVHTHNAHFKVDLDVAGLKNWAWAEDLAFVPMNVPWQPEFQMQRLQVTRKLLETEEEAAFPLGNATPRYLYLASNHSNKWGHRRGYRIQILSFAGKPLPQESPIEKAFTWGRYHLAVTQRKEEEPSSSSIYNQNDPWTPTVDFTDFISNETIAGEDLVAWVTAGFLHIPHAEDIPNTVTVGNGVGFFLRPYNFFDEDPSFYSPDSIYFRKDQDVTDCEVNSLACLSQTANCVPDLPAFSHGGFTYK
The data set can be described thus: Inhibition of rat VAP1 expressed in CHO cells using [14C]-benzylamine as substrate incubated for 30 mins prior to substrate addition measured after 1 hr by scintillation spectrophotometric analysis. Format: cell-based.

For data set [7], the species on record is Homo sapiens. The experiment in a line: Selectivity ratio of IC50 for human DAO to IC50 for human VAP1.
Data set [8] concerns Plasma. The data set can be described thus: Plasma concentration in Wistar rat at 0.1 mg/kg, sc after 0.5 to 6 hrs by LC-MS analysis. Format: ADME, organism-based. Further details: dose 0.1 mg/kg, route subcutaneous. Particulars: in vivo.
Data set [9] is described as follows: Selectivity ratio of IC50 for human VAP1 to IC50 for rat VAP1.
The subject of data set [10] is Plasma. The experiment in a line: Plasma concentration in sc dosed Wistar rat after 0.5 to 6 hrs by LC-MS analysis. Format: ADME, organism-based. Particulars: in vivo.

Calls of active or inactive are those of the source. The calls are words filed in the database; no cut-off is given here.

Turning to `CC(=O)Nc1nc(CCCc2ccc(NC(=N)N)cc2)cs1`, in [1], half-maximal inhibition (IC50) required 8.8 µM. On the same count and under the same terms, the figure for `N=C(N)Nc1ccc(CCc2csc(NC(=O)c3ccccc3)n2)cc1` is 11 µM; for `CC(=O)Nc1nc(CCc2ccc(NC(=N)N(C)C)cc2)cs1` it is greater than 100 µM; for `CC(=O)Nc1nc(CCc2ccc(N=C(N)NC(C)C)cc2)cs1` it is 1.1 µM.

Compound `CC(=O)Nc1nc(-c2ccc(CCNC(=N)N)cc2)cs1` yielded an IC50 in [1] of 0.33 µM.

Consider `CC(=O)Nc1ncc(CCc2ccc(NC(=N)N)cc2)s1`, for which the half-maximal inhibitory concentration (IC50) in data set [1] was 9.6 µM. `CC(=O)Nc1nc(CCc2ccc(NC3=NCCN3)cc2)cs1` gave a 50% inhibitory concentration (IC50) in [1] of 3 µM. For `CC(=O)Nc1nc(CCc2ccc(N)cc2)cs1`, the half-inhibitory concentration (IC50) in data set [1] was greater than 100 µM. `CC(C)C(=O)Nc1nc(CCc2ccc(NC(=N)N)cc2)cs1` came in with an IC50 in data set [1] of 0.52 µM. Regarding `CC(=O)Nc1ccc(CCc2ccc(NC(=N)N)cc2)cc1`, in data set [1], the IC50 stood at 18 µM. In turn, `CC(=O)Nc1nc(Cc2ccc(NC(=N)N)cc2)cs1` yielded a half-maximal inhibitory concentration (IC50) in [1] of 42 µM.

In turn, `CC(=O)Nc1nc(CCc2ccc(NC=N)cc2)cs1` gave an IC50 in data set [1] of 0.73 µM. On to `CC(=O)Nc1nc(CCc2ccc(NC3=NCCS3)cc2)cs1`, for which, in data set [1], half-maximal inhibition (IC50) was put at 3.5 µM. In data set [1], `CC(=O)Nc1nc(CCc2ccc(CCN)cc2)cs1` returned a 50% inhibitory concentration (IC50) of 5 µM. In turn, `N=C(N)Nc1ccc(CCc2csc(N)n2)cc1` returned an IC50 in [1] of 22 µM. On the same count and under the same terms, for `CCNC(=N)Nc1ccc(CCc2csc(NC(C)=O)n2)cc1` the value was 0.68 µM. Still for that read-out and setting: the figure for `CC(=O)Nc1nc(CCc2ccc(NC(N)=S)cc2)cs1` is greater than 10 µM; for `CC(=O)Nc1cccc(CCc2ccc(NC(=N)N)cc2)c1` it is 15 µM. Turning to `CC(=O)Nc1nc(CCc2ccc(NC(=N)N)cc2)cs1`, the inhibition result in data set [2] and in data set [5] was “Active” each time. Moreover, the half-inhibitory concentration (IC50) was greater than 100 µM in [3], 0.23 µM in [1] and 0.014 µM in data set [6]. For the same compound, the Ratio IC50 in [4] was greater than 435; in [7], greater than 435; in data set [9], 16. Besides, the values for the Cp in [8] and in data set [10] were 21.8 ng/mL and “Dose-dependent effect”, respectively.

In the case of `CSC(=N)Nc1ccc(CCc2csc(NC(C)=O)n2)cc1`, in data set [1], the half-maximal inhibitory concentration (IC50) was 1.1 µM.
